Experimental data as given in the NIST ThermoML archive (doi:10.1021/je060353z).

Assay: xn = mol fraction of the nth substance listed
Conditions: 101 kPa, Liquid

Clc1ccccc1 [chlorobenzene] + CCCCCCCO
Conditions	mass density [kg/m3]	speed of sound [m/s]	viscosity [mPa·s]
298.15 K, x1 = 0.1306	846.348	1316.7	4.469
298.15 K, x1 = 0.2566	874.819	1305.5	3.335
298.15 K, x1 = 0.3866	906.448	1293.8	2.453
298.15 K, x1 = 0.4947	934.739	1284	1.911
298.15 K, x1 = 0.5878	960.727	1276	1.557
298.15 K, x1 = 0.6827	988.992	1269.1	1.273
298.15 K, x1 = 0.7682	1016.23	1264.6	1.073
298.15 K, x1 = 0.8521	1044.88	1262.7	0.918
298.15 K, x1 = 0.9255	1071.67	1263.8	0.817
298.15 K, x1 = 1	1100.97	1268	0.757
303.15 K, x1 = 0.1306	842.689	1300	3.832
303.15 K, x1 = 0.2566	870.964	1289	2.896
303.15 K, x1 = 0.3866	902.362	1277.6	2.164
303.15 K, x1 = 0.4947	930.425	1268.2	1.709
303.15 K, x1 = 0.5878	956.224	1260.7	1.406
303.15 K, x1 = 0.6827	984.268	1253.8	1.16
303.15 K, x1 = 0.7682	1011.3	1248.7	0.984
303.15 K, x1 = 0.8521	1039.69	1245.4	0.85
303.15 K, x1 = 0.9255	1066.23	1245.5	0.764
303.15 K, x1 = 1	1095.1	1249.4	0.714
308.15 K, x1 = 0.1306	838.9	1283.3	3.311
308.15 K, x1 = 0.2566	866.926	1272.1	2.532
308.15 K, x1 = 0.3866	898.052	1260.4	1.922
308.15 K, x1 = 0.4947	925.892	1250.2	1.543
308.15 K, x1 = 0.5878	951.47	1242	1.283
308.15 K, x1 = 0.6827	979.252	1235	1.059
308.15 K, x1 = 0.7682	1006.02	1230.1	0.915
308.15 K, x1 = 0.8521	1034.12	1227.6	0.816
308.15 K, x1 = 0.9255	1060.42	1228	0.733
308.15 K, x1 = 1	1089.08	1230.9	0.677
313.15 K, x1 = 0.1306	835.146	1266.5	2.872
313.15 K, x1 = 0.2566	862.967	1255.6	2.219
313.15 K, x1 = 0.3866	893.905	1243.8	1.705
313.15 K, x1 = 0.4947	921.55	1233.6	1.378
313.15 K, x1 = 0.5878	946.95	1225.3	1.135
313.15 K, x1 = 0.6827	974.575	1217.9	0.953
313.15 K, x1 = 0.7682	1001.13	1212.9	0.822
313.15 K, x1 = 0.8521	1029.02	1209.9	0.723
313.15 K, x1 = 0.9255	1055.08	1209.7	0.662
313.15 K, x1 = 1	1083.66	1212.6	0.617

Clc1ccccc1 [chlorobenzene] + CCCCCCO
Conditions	mass density [kg/m3]	speed of sound [m/s]	viscosity [mPa·s]
298.15 K, x1 = 0.1144	842.629	1297.7	3.576
298.15 K, x1 = 0.2338	872.274	1289.8	2.746
298.15 K, x1 = 0.3573	904.193	1281.6	2.107
298.15 K, x1 = 0.4628	932.67	1274.8	1.699
298.15 K, x1 = 0.5568	959.077	1269.2	1.417
298.15 K, x1 = 0.6542	987.534	1264.3	1.184
298.15 K, x1 = 0.7457	1015.51	1260.9	1.008
298.15 K, x1 = 0.8353	1044.18	1259.3	0.873
298.15 K, x1 = 0.9171	1071.62	1260.9	0.788
298.15 K, x1 = 1	1100.97	1268	0.757
303.15 K, x1 = 0.1144	839.289	1280.6	3.096
303.15 K, x1 = 0.2338	868.705	1272.5	2.414
303.15 K, x1 = 0.3573	900.355	1264	1.87
303.15 K, x1 = 0.4628	928.591	1257.1	1.515
303.15 K, x1 = 0.5568	954.767	1251.6	1.274
303.15 K, x1 = 0.6542	982.986	1246.6	1.079
303.15 K, x1 = 0.7457	1010.71	1243.1	0.935
303.15 K, x1 = 0.8353	1039.12	1241.5	0.824
303.15 K, x1 = 0.9171	1066.27	1243.2	0.752
303.15 K, x1 = 1	1095.1	1249.4	0.714
308.15 K, x1 = 0.1144	835.421	1263.6	2.695
308.15 K, x1 = 0.2338	864.604	1255.4	2.123
308.15 K, x1 = 0.3573	895.988	1246.7	1.665
308.15 K, x1 = 0.4628	923.985	1239.7	1.369
308.15 K, x1 = 0.5568	949.942	1233.9	1.165
308.15 K, x1 = 0.6542	977.948	1228.9	0.997
308.15 K, x1 = 0.7457	1005.42	1225.4	0.87
308.15 K, x1 = 0.8353	1033.55	1224.3	0.772
308.15 K, x1 = 0.9171	1060.41	1225.8	0.711
308.15 K, x1 = 1	1089.08	1230.9	0.677
313.15 K, x1 = 0.1144	831.574	1246.5	2.35
313.15 K, x1 = 0.2338	860.561	1238.5	1.865
313.15 K, x1 = 0.3573	891.747	1229.8	1.478
313.15 K, x1 = 0.4628	919.571	1222.9	1.223
313.15 K, x1 = 0.5568	945.388	1216.7	1.044
313.15 K, x1 = 0.6542	973.227	1211.6	0.896
313.15 K, x1 = 0.7457	1000.53	1207.9	0.78
313.15 K, x1 = 0.8353	1028.46	1206.6	0.692
313.15 K, x1 = 0.9171	1055.09	1208.2	0.637
313.15 K, x1 = 1	1083.66	1212.6	0.617

CCCCCCCCCCO [decan-1-ol] + Clc1ccccc1
x2 = 0
Conditions	mass density [kg/m3]	speed of sound [m/s]	viscosity [mPa·s]
298.15 K	826.762	1380	11.83
303.15 K	822.853	1365	9.754
308.15 K	819.427	1346.1	8.135
313.15 K	815.983	1329.3	6.842

CCCCCCCO [heptan-1-ol] + Clc1ccccc1
x2 = 0
Conditions	mass density [kg/m3]	speed of sound [m/s]	viscosity [mPa·s]
298.15 K	818.732	1327.3	5.944
303.15 K	815.287	1313.6	5.069
308.15 K	811.737	1293.9	4.333
313.15 K	808.162	1277.2	3.726

CCCCCCO [hexan-1-ol] + Clc1ccccc1
x2 = 0
Conditions	mass density [kg/m3]	speed of sound [m/s]	viscosity [mPa·s]
298.15 K	815.23	1304.7	4.594
303.15 K	812.118	1287.9	3.887
308.15 K	808.482	1271.1	3.359
313.15 K	804.811	1254.5	2.914
